Reference: the supplement of paper PMC10307832

Tests used:
Test in all cases: relative viability (nuclei count vs DMSO), 5 days (fraction); higher = more cells survive
SGI-1776 + Bortezomib = compound: CN1CCC(CNc2ccc3ncc(-c4cccc(OC(F)(F)F)c4)n3n2)CC1 [SGI-1776] + CC(C)C[C@H](NC(=O)[C@H](Cc1ccccc1)NC(=O)c1cnccn1)B(O)O [Bortezomib] (partner 0.002 µM)
Outline: (§1)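 Lung cancer cell lines in 1536-well plates were dosed by pin tool the day after seeding, either with one drug alone or with a fixed anchor-drug dose plus five library-drug doses (not always all listed) in √10 steps. After 5 days, cells were fixed and their nuclei stained in one step (final 0.05% Triton X-100, 1% formaldehyde, 1 ug/ml Hoechst), then counted on 4× images. Relative viability is the nuclei count in treated wells divided by that in vehicle wells. Values are medians of duplicate plates.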

[1] = compound: C1COCCN1C2=NC(=NC3=C2OC4=C3C=CC=N4)C5=CC(=CC=C5)NC(=O)C6=CN=C(C=C6)N + CC1(C)CCC(c2ccc(Cl)cc2)=C(CN2CCN(c3ccc(C(=O)NS(=O)(=O)c4ccc(N[C@H](CCN5CCOCC5)CSc5ccccc5)c(S(=O)(=O)C(F)(F)F)c4)cc3)CC2)C1 [Navitoclax] (partner 0.5 µM)
Outline: as §1

[2] = compound: C1COCCN1C2=NC(=NC3=C2OC4=C3C=CC=N4)C5=CC(=CC=C5)NC(=O)C6=CN=C(C=C6)N + CS(=O)(=O)CCNCc1ccc(-c2ccc3ncnc(Nc4ccc(OCc5cccc(F)c5)c(Cl)c4)c3c2)o1 [Lapatinib] (partner 2 µM)
Outline: as §1

SGI-1776 + Linsitinib = compound: CN1CCC(CNc2ccc3ncc(-c4cccc(OC(F)(F)F)c4)n3n2)CC1 [SGI-1776] + C[C@]1(O)C[C@@H](c2nc(-c3ccc4ccc(-c5ccccc5)nc4c3)c3c(N)nccn32)C1 [Linsitinib] (partner 1 µM)
Outline: as §1

| Cell Line | relative viability (SGI-1776 + Bortezomib; first compound 0.08 µM) | relative viability (SGI-1776 + Bortezomib; first compound 0.8 µM) | relative viability (SGI-1776 + Bortezomib; first compound 2.53 µM) | relative viability (SGI-1776 + Bortezomib; first compound 8 µM) | relative viability ([1]; first compound 0.02 µM) | relative viability ([1]; first compound 0.06325 µM) | relative viability ([1]; first compound 0.2 µM) | relative viability ([1]; first compound 0.6325 µM) | relative viability ([1]; first compound 2 µM) | relative viability ([2]; first compound 0.02 µM) | relative viability ([2]; first compound 0.06325 µM) | relative viability ([2]; first compound 0.2 µM) | relative viability ([2]; first compound 0.6325 µM) | relative viability ([2]; first compound 2 µM) | relative viability (SGI-1776 + Linsitinib; first compound 0.08 µM) | relative viability (SGI-1776 + Linsitinib; first compound 0.8 µM) | relative viability (SGI-1776 + Linsitinib; first compound 2.53 µM) | relative viability (SGI-1776 + Linsitinib; first compound 8 µM) |
| --- | --- | --- | --- | --- | --- | --- | --- | --- | --- | --- | --- | --- | --- | --- | --- | --- | --- | --- |
| CAL-12T | 1.35 | 0.982 | 0.918 | 0.867 | 1.06 | 1.41 | 1.23 | 1.11 | 0.883 | 0.663 | 0.701 | 0.632 | 0.604 | 0.472 | 0.916 | 0.821 | 0.821 | 0.756 |
| PC-14 | 0.846 | 0.915 | 0.99 | 0.566 | 1.09 | 1.06 | 1.02 | 1.01 | 0.465 | 0.308 | 0.391 | 0.307 | 0.283 | 0.249 | 1.06 | 0.965 | 0.938 | 0.802 |
| NCI-H23 | 0.997 | 1.09 | 1.07 | 0.991 | 0.788 | 0.968 | 0.733 | 0.72 | 0.533 | 1.43 | 1.15 | 1.18 | 0.988 | 0.719 | 0.724 | 0.541 | 0.517 | 0.411 |
| SK-LU-1 | 1.28 | 1.31 | 1.52 | 0.807 | 0.982 | 0.724 | 0.863 | 0.765 | 0.447 | 1.02 | 1.01 | 0.786 | 0.824 | 0.33 | 1.33 | 1.24 | 1.06 | 0.633 |
| NCI-H727 | 0.888 | 1.13 | 0.855 | 0.724 | 0.351 | 0.501 | 0.343 | 0.357 | 0.337 | 0.829 | 0.753 | 0.742 | 0.722 | 0.686 | 0.254 | 0.26 | 0.346 | 0.241 |
| HCC-366 | 0.919 | 1.11 | 0.98 | 1.12 | 1.13 | 1.21 | 1 | 1.11 | 0.526 | 1.35 | 1.04 | 0.95 | 1.03 | 0.453 | 0.731 | 0.697 | 0.633 | 0.413 |
| SW 1573 | 1.03 | 0.872 | 1.07 | 0.935 | 1.02 | 1.01 | 0.856 | 0.912 | 0.567 | 1.2 | 1.13 | 0.932 | 1.1 | 0.896 | 0.94 | 0.777 | 0.765 | 0.741 |
| HCC-44 | 0.942 | 0.908 | 0.98 | 0.895 | 1.08 | 1.15 | 1.08 | 1 | 0.571 | 1.1 | 1.07 | 1.09 | 1.06 | 0.631 | 0.73 | 0.709 | 0.644 | 0.641 |
| A-427 | 1.04 | 1.03 | 0.931 | 0.749 | 1 | 0.964 | 0.812 | 0.864 | 0.835 | 1.06 | 1.04 | 0.91 | 1.1 | 0.677 | 1.13 | 1.19 | 1.16 | 1.07 |
| NCI-H2085 | 1.14 | 1.16 | 1 | 0.922 | 1.15 | 1.12 | 1.05 | 1.1 | 0.602 | 0.77 | 0.771 | 0.744 | 0.726 | 0.65 | 0.994 | 0.957 | 0.902 | 0.757 |
| NCI-H647 | 1.24 | 0.964 | 0.888 | 0.837 | 1.18 | 1.11 | 1.22 | 1.16 | 0.704 | 1.11 | 1.22 | 0.965 | 0.868 | 0.275 | 1.29 | 1.16 | 0.978 | 0.739 |
| LC-2-ad | 1.06 | 0.976 | 1.03 | 0.987 | 0.461 | 0.529 | 0.418 | 0.611 | 0.379 | 0.948 | 0.939 | 0.968 | 1.03 | 0.537 | 0.842 | 0.959 | 0.911 | 0.639 |
| NCI-H3122 | 1.06 | 1.01 | 1.08 | 1.01 | 0.975 | 1.05 | 1.03 | 1.02 | 0.798 | 0.958 | 1.08 | 1.04 | 1.07 | 0.88 | 1.04 | 0.983 | 1.16 | 1.08 |
| LCLC-97TM1 | 0.775 | 0.557 | 0.549 | 0.567 |  | 0.532 | 0.673 | 0.546 | 0.43 |  | 1.25 | 1.15 | 0.892 | 0.761 | 0.193 | 0.154 | 0.187 | 0.16 |
| NCI-H520 | 0.859 | 0.776 | 0.716 | 0.22 | 1.12 | 1.17 | 1.06 | 1.07 | 0.713 | 0.874 | 1.03 | 0.897 | 0.852 | 0.441 | 1.17 | 1.02 | 1.05 | 0.848 |
| NCI-H1792 | 0.94 | 0.941 | 0.977 | 1.01 | 0.571 | 0.675 | 0.718 | 0.53 | 0.462 | 0.882 | 0.904 | 0.874 | 0.925 | 0.376 | 0.479 | 0.543 | 0.503 | 0.647 |
| NCI-H1755 | 0.932 | 0.953 | 0.971 | 0.774 | 0.987 | 1.13 | 1.05 | 0.861 | 0.561 | 1.09 | 1.12 | 1.05 | 1.02 | 0.653 | 0.988 | 0.969 | 0.996 | 0.896 |
| EPLC-272H | 0.939 | 1.06 | 0.927 | 0.739 | 1.23 | 1.06 | 1.13 | 1.08 | 0.893 | 0.886 | 1.02 | 0.674 | 0.825 | 0.53 | 1.18 | 1.19 | 1.34 | 1.11 |
| NCI-H2228 | 1.05 | 0.917 | 0.992 | 0.531 | 0.959 | 1.31 | 0.783 | 1.3 | 0.348 | 1.1 | 1.2 | 0.89 | 1.06 | 0.604 | 0.881 | 0.541 | 0.557 | 0.276 |
